Reference: US7829589B2, “Sulfonamide compounds and uses thereof” (Elixir Pharmaceuticals, Inc., priority 2005, dated 2010)

Target: GHS-R (Homo sapiens, UniProt Q92847)
Experiment: GHS-R antagonist activity (Ki) in a cell based assay
Experimental: Cell-Based Activity Assays. For example, the ability of the compound to modulate accumulation of a second messenger signaling component downstream of GHS-R can be evaluated. For example, inositol phosphates (IP), as a result of Gq signaling in a mammalian cell, e.g., a Cos-7 cells. Other tissue culture cells, Xenopus oocytes, and primary cells can also be used.
Phosphatidylinositol turnover assay. One day after transfection COS-7 cells are incubated for 24 hours with 5 μCi of [^3H]-myo-inositol in 1 ml medium supplemented with 10% fetal calf serum, 2 mM glutamine and 0.01 mg/ml gentamicin per well. Cells are then washed twice in buffer, 20 mM HEPES, pH 7.4, supplemented with 140 mM NaCl, 5 mM KCl, 1 mM MgSO4, 1 mM CaCl2, 10 mM glucose, 0.05% (w/v) bovine serum; and incubated in 0.5 ml buffer supplemented with 10 mM LiCl at 37° C. for 30 min. For some assays, it is also useful to incubate the cells with adenosine deaminase ADA (200 U/mg, Boehringer Mannheim, Germany) for 30 min in a concentration of 1 U/ml.
After incubation with the compound of interest for 45 min at 37° C., cells are extracted with 10% ice-cold perchloric acid and placed on ice for 30 min. The resulting supernatants are neutralized with KOH in HEPES buffer, and [^3H]-inositol phosphate is purified on Bio-Rad AG 1-X8 anion exchange resin as described. Assays can be run in duplicate, triplicate, etc. […]

Chain of GHS-R (Q92847 whole entry, species assumed): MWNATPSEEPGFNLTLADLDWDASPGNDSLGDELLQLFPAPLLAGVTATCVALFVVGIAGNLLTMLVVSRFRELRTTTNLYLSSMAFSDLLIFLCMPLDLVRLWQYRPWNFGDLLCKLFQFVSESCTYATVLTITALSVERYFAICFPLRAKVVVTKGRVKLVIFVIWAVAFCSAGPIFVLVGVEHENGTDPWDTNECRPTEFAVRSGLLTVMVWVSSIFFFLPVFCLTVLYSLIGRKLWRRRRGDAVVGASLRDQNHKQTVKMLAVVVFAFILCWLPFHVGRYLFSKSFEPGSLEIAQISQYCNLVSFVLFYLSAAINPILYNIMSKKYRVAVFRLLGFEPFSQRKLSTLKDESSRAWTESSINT

With `CCN(CC)CCCS(=O)(=O)N[C@H](CCc1ccccc1)c1nc(Cc2ccccc2Cl)no1` [Compound 114, 3-Diethylamino-propane-1-sulfonic acid {(R)-1-[3-(2-chloro-benzyl)-[1,2,4]oxadiazol-5-yl]-3-phenyl-propy}-amide] the Ki was under 100 nM.

Molecule `CCN(CC)CCCS(=O)(=O)N[C@@H](C)c1nc(-c2ccc(OC)cc2)no1` [Compound 150, (S)-3-Diethylamino-propane-1-sulfonic acid {1-[3-(4-methoxy-phenyl)-[1,2,4]oxadiazol-5-yl]-ethyl}-amide] has a Ki of 100 to 500 nM.

`CCN(CC)CCCS(=O)(=O)NCc1nc(Cc2ccc(Br)cc2)no1` [Compound 151, 3-Diethylamino-propane-1-sulfonic acid [3-(4-bromo-benzyl)-[1,2,4]oxadiazol-5-ylmethyl]-amide] gave a Ki of 100 to 500 nM.

Work on `CCN(CC)CCS(=O)(=O)N[C@H](CCc1ccccc1)c1nc(-c2ccccc2OC)no1` [Compound 19, 2-Diethylamino-ethanesulfonic acid {(R)-1-[3-(2-methoxy-phenyl)-[1,2,4]oxadiazol-5-yl]-3-phenyl-propyl}-amide] yielded a Ki of at least 1000 nM.

`CCN(CC)CCCS(=O)(=O)N[C@H](CCc1ccccc1)c1nc(COc2ccccc2)no1` [Compound 99, 3-Diethylamino-propane-1-sulfonic acid [(R)-1-(3-phenoxymethyl-[1,2,4]oxadiazol-5-yl)-3-phenyl-propyl]-amide] was tested, and the Ki was under 100 nM.

In the case of `CCN(CC)CCCS(=O)(=O)N[C@H](CCc1ccccc1)c1nc(Cc2cccc(F)c2)no1` [Compound 62, 3-Diethylamino-propane-1-sulfonic acid {(R)-1-[3-(3-fluoro-benzyl)-[1,2,4]oxadiazol-5-yl]-3-phenyl-propyl}-amide], the Ki is reported as under 100 nM.

`CCN(CC)CCCS(=O)(=O)N[C@H](CCc1ccccc1)c1nc(Cc2ccccn2)no1` [Compound 112, 3-Diethylamino-propane-1-sulfonic acid [(R)-3-phenyl-1-(3-pyridin-2-ylmethyl-[1,2,4]oxadiazol-5-yl)-propyl]-amide] was tested, and the Ki was 100 to 500 nM.

Work on `CCN(CC)CCCS(=O)(=O)N[C@H](CCc1ccccc1)c1nc(Cc2ccc3c(c2)OCO3)n[nH]1` [Compound 30, 3-Diethylamino-propane-1-sulfonic acid [(R)-1-(5-benzo[1,3]dioxol-5-ylmethyl-2H-[1,2,4]triazol-3-yl)-3-phenyl-propyl]-amide] yielded a Ki of under 100 nM.

With `CCN(CC)CCS(=O)(=O)N[C@H](CCc1ccccc1)c1nc(-c2cccnc2Cl)no1` [Compound 54, 2-Diethylamino-ethanesulfonic acid {(R)-1-[3-(2-chloro-pyridin-3-yl)-[1,2,4]oxadiazol-5-yl]-3-phenyl-propyl}-amide] the Ki was 100 to 500 nM.

For `CCN(CC)CCCS(=O)(=O)N[C@H](C)c1nc(-c2ccc(OC)cc2)no1` [Compound 152, (R)-3-Diethylamino-propane-1-sulfonic acid {1-[3-(4-methoxy-phenyl)-[1,2,4]oxadiazol-5-yl]-ethyl}-amide], the Ki was 100 to 500 nM.

In the case of `CCN(CC)CCCS(=O)(=O)N[C@@H](CCc1ccccc1)c1nc(-c2ccccc2C)no1` [Compound 21, 3-Diethylamino-propane-1-sulfonic acid [(S)-3-phenyl-1-(3-o-tolyl-[1,2,4]oxadiazol-5-yl)-propyl]-amide], the Ki is reported as 100 to 500 nM.

In the case of `CCN(CC)CCCS(=O)(=O)N[C@H](CC(C)C)c1nc(-c2ccc(OC)cc2)n[nH]1` [Compound 160, (R)-3-Diethylamino-propane-1-sulfonic acid {1-[5-(4-methoxy-phenyl)-2H-[1,2,4]triazol-3-yl]-3-methyl-butyl}-amide], the Ki is reported as 100 to 500 nM.

`CCN(CC)CCCS(=O)(=O)N[C@H](CCc1ccccc1)c1nc(Cc2ccc(OC)cc2)no1` [Compound 111, 3-Diethylamino-propane-1-sulfonic acid {(R)-1-[3-(4-methoxy-benzyl)-[1,2,4]oxadiazol-5-yl]-3-phenyl-propyl}-amide] showed a Ki of under 100 nM.

For `CCN(CC)C1CCC(S(=O)(=O)N[C@H](CCc2ccccc2)c2nnc(-c3ccc(F)cc3)[nH]2)CC1` (stereo partly drawn) [Compound 35, 4-Diethylamino-cyclohexanesulfonic acid {(R)-1-[5-(4-fluoro-phenyl)-4H-[1,2,4]triazol-3-yl]-3-phenyl-propyl}-amide], the Ki was 100 to 500 nM.

Work on `CCN(CC)CCS(=O)(=O)N[C@H](CCc1ccccc1)c1nc(-c2ccc(OC)cc2)no1` [Compound 88, 2-Diethylamino-ethanesulfonic acid {(R)-1-[3-(4-methoxy-phenyl)-[1,2,4]oxadiazol-5-yl]-3-phenyl-propyl}-amide] yielded a Ki of at least 1000 nM.

Work on `CCN(CC)CCCS(=O)(=O)N[C@H](CCc1ccccc1)c1nc(Cc2c[nH]c3ccccc23)n[nH]1` [Compound 127, 3-Diethylamino-propane-1-sulfonic acid {(R)-1-[5-(1H-indol-3-ylmethyl)-2H-[1,2,4]triazol-3-yl]-3phenyl-propyl}-amide] yielded a Ki of under 100 nM.

For `CCN(CC)CCCS(=O)(=O)N[C@H](CCc1ccccc1)c1nc(-c2ccc3ncsc3c2)n[nH]1` [Compound 44, 3-Diethylamino-propane-1-sulfonic acid [(R)-1-(5-benzothiazol-6-yl-2H-[1,2,4]triazol-3-yl)-3-phenyl-propyl]-amide], the Ki was under 100 nM.

In the case of `CCN(CC)CCCS(=O)(=O)N[C@H](COCc1ccccc1)c1nc(-c2ccncc2)no1` [Compound 51, 3-Diethylamino-propane-1-sulfonic acid [(R)-2-benzyloxy-1-(3-pyridin-4-yl-[1,2,4]oxadiazol-5-yl)-ethyl]-amide], the Ki is reported as at least 1000 nM.

Molecule `CCN(CC)CCS(=O)(=O)N[C@H](CCc1ccccc1)c1nc(-c2ccc(Br)cc2C)no1` [Compound 85, 2-Diethylamino-ethanesulfonic acid {(R)-1-[3-(4-bromo-2-methyl-phenyl)-[1,2,4]oxadiazol-5-yl]-3-phenyl-propyl}-amide] has a Ki of at least 1000 nM.

Work on `CCN(CC)CCCS(=O)(=O)N[C@H](COCc1ccccc1)c1nc(-c2ncccc2C)no1` [Compound 34, 3-Diethylamino-propane-1-sulfonic acid {(R)-2-benzyloxy-1-[3-(3-methyl-pyridin-2-yl)-[1,2,4]oxadiazol-5-yl]-ethyl}-amide] yielded a Ki of 500 to 1000 nM.

Molecule `CCN(CC)CCCS(=O)(=O)N1CCC[C@H]1c1nc(-c2ccc(OC)cc2)no1` [Compound 143, (S)-Diethyl-(3-{2-[3-(4-methoxy-phenyl)-[1,2,4]oxadiazol-5-yl]-pyrrolidine-1-sulfonyl}-propyl)-amine] has a Ki of 100 to 500 nM.

For `CCN(CC)CCCS(=O)(=O)N[C@H](CCc1ccccc1)c1nc(-c2ccc3c(c2)OCO3)n[nH]1` [Compound 11, 3-Diethylamino-propane-1-sulfonic acid [(R)-1-(5-benzo[1,3]dioxol-5-yl-2H-[1,2,4]triazol-3-yl)-3-phenyl-propyl]-amide], the Ki was under 100 nM.

For `CCN(CC)CCCS(=O)(=O)N[C@H](CCc1ccccc1)c1nc(-c2ccccc2C)no1` [Compound 4, 3-Diethylamino-propane-1-sulfonic acid [(R)-3-phenyl-1-(3-o-tolyl-[1,2,4]oxadiazol-5-yl)-propyl]-amide], the Ki was under 100 nM.

With `CCN(CC)CCCS(=O)(=O)N[C@H](CCc1ccccc1)c1nc(-c2ncccc2C)no1` [Compound 9, 3-Diethylamino-propane-1-sulfonic acid {(R)-1-[3-(3-methyl-pyridin-2-yl)-[1,2,4]oxadiazol-5-yl]-3-phenyl-propyl}-amide] the Ki was 100 to 500 nM.

In the case of `CCN(CC)CCCS(=O)(=O)N[C@H](CCc1ccccc1)c1nc(Cc2ccc(F)cc2)n[nH]1` [Compound 5, 3-Diethylamino-propane-1-sulfonic acid {(R)-1-[5-(4-fluoro-benzyl)-2H-[1,2,4]triazol-3-yl]-3-phenyl-propyl}-amide], the Ki is reported as under 100 nM.

In the case of `CCN(CC)CCCS(=O)(=O)N[C@H](CCc1ccccc1)c1nc(Cc2ccsc2)n[nH]1` [Compound 122, 3-Diethylamino-propane-1-sulfonic acid [(R)-3-phenyl-1-(5-thiophen-3-ylmethyl-2H-[1,2,4]triazol-3-yl)-propyl]-amide], the Ki is reported as under 100 nM.

In the case of “3-Diethylamino-propane-1-sulfonic acid {(R)-1-[3-(5-bromo-pyridin-3-yl)-[1,2,4]oxadiazol-5-yl]-phenyl-propyl}-amide [Compound 103]”, the Ki is reported as 100 to 500 nM.

With `CCN(CC)CCCS(=O)(=O)N[C@H](Cc1ccccc1)c1nc(-c2ccc(OC)cc2)n[nH]1` [Compound 119, 3-Diethylamino-propane-1-sulfonic acid {(R)-1-[5-(4-methoxy-phenyl)-2H-[1,2,4]triazol-3-yl]-2-phenyl-ethyl}-amide] the Ki was 100 to 500 nM.

In the case of `CCN(CC)CCCS(=O)(=O)N[C@H](CCc1ccccc1)c1nc(-c2c(F)cc(F)cc2F)n[nH]1` [Compound 8, 3-Diethylamino-propane-1-sulfonic acid {(R)-3-phenyl-1-[5-(2,4,6-trifluoro-phenyl)-2H-[1,2,4]triazol-3-yl]-propyl}-amide], the Ki is reported as under 100 nM.

With `CCN(CC)CCCS(=O)(=O)N[C@H](CCc1ccccc1)c1nc(Cc2ccc(Cl)cc2)n[nH]1` [Compound 24, 3-Diethylamino-propane-1-sulfonic acid {(R)-1-[5-(4-chloro-benzyl)-2H-[1,2,4]triazol-3-yl]-3-phenyl-propyl}-amide] the Ki was under 100 nM.
